Active and inactive are the calls of the source. Some results are limits rather than exact numbers.

Data set [1] is described as follows: Cytotoxicity against human HepG2.A64 cells incubated for 72 hrs by CCK8 assay. It counts as toxicity, cell-based.
The test system of data set [2] is Hepatitis B virus. Kind of data set: Antiviral activity against HBV infected in human HepG2.A64 cells assessed as inhibition of viral DNA replication pre-transfected cells with viral genome followed by compound treatment for 3 days by RT-PCR analysis. It counts as functional, organism-based. As to conditions: HepG2.A64, 72 h.
For data set [3], the system named is Hepatitis B virus. Briefly: Antiviral activity against HBV infected in LAM/ETV-resistant human HepG2.A64 cells assessed as inhibition of viral DNA replication at 4 uM pre-transfected cells with viral genome followed by compound treatment for 72 hrs by RT-PCR analysis relative to control. It counts as functional.
Data set [4] in a line: AUClast in Sprague-Dawley rat at 10 mg/kg, IG measured for 12 hrs by UPLC-MS/MS analysis. It counts as ADME, organism-based. As to conditions: in vivo, po.
Data set [5] has as its system PBMC. Kind of data set: Induction of IL-2 production in human PBMC cells incubated for 24 hrs by ELISA. It counts as functional, cell-based. As to conditions: dose 0.4-10 µM. (In general: In an ELISA, binding on a coated surface is turned into a signal by an enzyme label.)
For data set [6], the system named is Hepatitis B virus. Kind of data set: Antiviral activity against HBV infected in human HepG2.2.15 cells assessed as inhibition of viral DNA replication pre-transfected cells with viral genome followed by compound treatment for 6 days with replacement of medium containing compound on every 2 days by RT-PCR analysis. It counts as functional, organism-based.
Data set [7] is described as follows: Half life in Sprague-Dawley rat at 10 mg/kg, IG measured for 12 hrs by UPLC-MS/MS analysis. It counts as ADME, organism-based. As to conditions: in vivo, po.
Data set [8] relates to PBMC. Briefly: Induction of TNF-alpha production in human PBMC cells incubated for 24 hrs by ELISA. It counts as functional, cell-based. The note with it: dose 0.4-10 µM.
A further data set has as its system HEK-293T. Kind of data set: Effect on NF-kappaB/Renilla luciferase expression in HEK293T cells at 0.4 to 10 uM incubated for 48 hrs by Dual-luciferase reporter gene assay. It counts as functional, cell-based. As to conditions: Homo sapiens, dose 0.4-10 µM. (Reporter assays use an easily measured gene product as a stand-in for the process of interest.)
Data set [9] is described as follows: Selectivity index, ratio of CC50 for human HepG2.A64 cells to IC50 for HBV infected in human HepG2.A64 cells assessed as inhibition of viral DNA replication. As to conditions: read-out: Ratio CC50/IC50. It counts as toxicity, cell-based.
Data set [10] can be described thus: Selectivity index, ratio of CC50 for human HepG2.2.15 cells to IC50 for HBsAg secretion in human HepG2.2.15 cells. It counts as toxicity, cell-based. As to conditions: HepG2.2.15 cells, read-out: Ratio CC50/IC50.
In data set [11] the target is T1, Toll-like receptor 7 (Homo sapiens) (UniProt Q9NYK1).
T1 sequence (whole entry): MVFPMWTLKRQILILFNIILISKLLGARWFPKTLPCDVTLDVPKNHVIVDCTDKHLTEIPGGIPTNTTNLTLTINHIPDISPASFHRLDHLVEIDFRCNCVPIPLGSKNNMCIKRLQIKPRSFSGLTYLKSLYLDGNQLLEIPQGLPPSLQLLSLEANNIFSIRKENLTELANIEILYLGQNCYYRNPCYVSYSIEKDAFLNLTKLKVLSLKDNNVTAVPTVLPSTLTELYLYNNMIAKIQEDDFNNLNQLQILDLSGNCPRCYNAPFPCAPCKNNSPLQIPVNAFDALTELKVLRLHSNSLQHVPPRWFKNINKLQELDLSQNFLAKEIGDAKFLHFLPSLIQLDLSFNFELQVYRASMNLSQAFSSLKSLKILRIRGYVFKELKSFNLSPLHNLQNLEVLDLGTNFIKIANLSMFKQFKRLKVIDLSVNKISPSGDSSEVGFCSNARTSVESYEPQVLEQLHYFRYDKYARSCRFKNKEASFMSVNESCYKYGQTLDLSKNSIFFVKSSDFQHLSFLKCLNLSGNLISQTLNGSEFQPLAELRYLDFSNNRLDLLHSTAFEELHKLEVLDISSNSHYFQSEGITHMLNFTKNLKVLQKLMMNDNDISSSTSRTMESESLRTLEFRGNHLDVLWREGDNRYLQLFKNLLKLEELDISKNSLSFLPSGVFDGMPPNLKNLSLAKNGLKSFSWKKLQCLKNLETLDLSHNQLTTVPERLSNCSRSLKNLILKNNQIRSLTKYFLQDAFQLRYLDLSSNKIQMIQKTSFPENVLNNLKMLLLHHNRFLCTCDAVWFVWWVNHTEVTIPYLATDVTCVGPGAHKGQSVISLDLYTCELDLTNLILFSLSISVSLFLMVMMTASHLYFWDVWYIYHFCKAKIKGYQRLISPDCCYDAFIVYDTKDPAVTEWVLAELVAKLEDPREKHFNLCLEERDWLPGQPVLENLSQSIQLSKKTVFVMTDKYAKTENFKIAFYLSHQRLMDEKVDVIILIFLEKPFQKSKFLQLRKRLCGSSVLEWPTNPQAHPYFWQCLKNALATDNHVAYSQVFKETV
Kind of data set: Agonist activity at human TLR7 expressed in HEK293T cells co-transfected with NF-kappaB/Renilla luciferase incubated for 48 hrs by Dual-luciferase reporter gene assay. It counts as cell-based. As to conditions: filed as agonist, dose 0.4-10 µM.

A short description of data set [12]: Selectivity index, ratio of CC50 for human HepG2.2.15 cells to IC50 for HBV infected in human HepG2.2.15 cells assessed as inhibition of viral DNA replication. It counts as toxicity, cell-based.
The test system of data set [13] is PBMC. Briefly: Induction of IFN-alpha production in human PBMC cells incubated for 24 hrs by ELISA. It counts as functional, cell-based. The note with it: dose 0.4-10 µM.
In a further data set the target is T2, Toll-like receptor 7 (Homo sapiens, UniProt Q9NYK1).
T2 sequence (Q9NYK1 whole entry): T1 sequence (whole entry)
Briefly: Binding affinity to recombinant human TLR7 assessed as dissociation constant by SPR analysis. A general note: In SPR one partner is held on a chip, and binding of the other changes the refractive index at the surface.

Data set [14] can be described thus: Cmax in Sprague-Dawley rat at 10 mg/kg, IG measured for 12 hrs by UPLC-MS/MS analysis. It counts as ADME, organism-based. The note with it: in vivo, po.
Data set [15] in a line: Tmax in Sprague-Dawley rat at 10 mg/kg, IG measured for 12 hrs by UPLC-MS/MS analysis. It counts as ADME, organism-based. The note with it: in vivo, po.
Data set [16] deals with Hepatitis B virus. Kind of data set: Antiviral activity against HBV infected in human HepG2.2.15 cells assessed as inhibition of viral DNA replication at 4 uM pre-transfected cells with viral genome followed by compound treatment for 6 days with replacement of medium containing compound on every 2 days by RT-PCR analysis relative to control. It counts as functional. The note with it: HepG2.2.15, 144 h, time 6 day.

Data set [17] deals with Hepatitis B virus. Kind of data set: Antiviral activity against HBV infected in human HepG2.2.15 cells assessed as inhibition of viral DNA replication at 4 uM pre-transfected cells with viral genome followed by compound treatment for 72 hrs by RT-PCR analysis relative to control. It counts as functional.
Data set [18] can be described thus: Inhibition of HBsAg secretion in human HepG2.2.15 cells treated for 6 days with replacement of medium containing compound on every 2 days by […]. It counts as functional, cell-based. As to conditions: HepG2 2.2.15.
Data set [19] can be described thus: Cytotoxicity against human HepG2.2.15 cells incubated for 72 hrs by CCK8 assay. It counts as toxicity, cell-based, HepG2 2.2.15.

Consider `O=C(Cc1csc(COc2ccccc2F)n1)N1CCc2ccccc21`, for which the CC50 (in general, the concentration giving 50% cytotoxicity) at 72 h is greater than 20 µM in data set [1] and greater than 50 µM in [19]. In addition, the IC50 (as a rule, the point on the concentration scale where inhibition reaches its midpoint) is 0.36 µM in the data set on Hepatitis B virus [2], 0.13 µM with Hepatitis B virus [6] and 25.9 µM in data set [18]. In addition, the inhibition – broadly, the change of the read-out against control, counted positive when it falls – at 4 µM with Hepatitis B virus [3] was 74.2%; with Hepatitis B virus [16] it was 69.2%; with Hepatitis B virus [17] it was 71.7%. Also, the AUC(0-t) – broadly, the area under the concentration-time curve up to a stated or last time point – at 12 h in data set [4] stood at 252 ng·h/mL. The Activity entry (in the data set with PBMC [5]; with PBMC [8]; in [11]; in the data set on PBMC [13]) was “Dose-Dependent Effect” in each case. In addition, the half-life (commonly the time needed for the level to fall by half in the phase considered) in [7] is 2 h. In addition, the result in the data set with HEK-293T was Active. Besides, the selectivity ratio is greater than 55.6 in [9]; greater than 1.93 in data set [10]; greater than 384 in [12] (HepG2.2.15 cells, read-out: Ratio CC50/IC50). The “Ratio CC50/IC50” value in data set [12] is greater than 384.62. Besides, on Toll-like receptor 7, the equilibrium dissociation constant (Kd) – broadly, a measure of binding affinity in units of concentration – is 7.06 µM. Further, the Cmax (as a rule, the maximum level reached in the sampled fluid or tissue) in [14] turned out to be 66 ng/mL. Also, the time of peak concentration (Tmax) (usually the time from dosing to the highest level) in [15] was found to be 2 h.

The values are drawn from ChEMBL document CHEMBL5579825, “Exploration of 1-(indolin-1-yl)-2-(thiazol-2-yl)ethan-1-one derivatives as novel anti-HBV agent with potential TLR7-agonistic effect” (Eur J Med Chem, 2024).
